Results published in ChEMBL document CHEMBL2331210, “New 2-benzylsulfanyl-nicotinic acid based 1,3,4-oxadiazoles: their synthesis and biological evaluation” (2013).
In brackets after ≈: the same amount, converted by molar mass.

What was measured:
MCF7 = experiment: Antitumor activity against human MCF7 cells assessed as cell growth at 0.1 uM; type: functional; conditions: read-out: Activity
MDA-MB-435 = experiment: Antitumor activity against human MDA-MB-435 cells assessed as cell growth at 0.1 uM; type: functional; conditions: read-out: Activity
NCI/ADR-RES = experiment: Antitumor activity against human NCI/ADR-RES cells assessed as cell growth at 0.1 uM; type: functional; conditions: read-out: Activity
Aspergillus niger = experiment: Antimicrobial activity against Aspergillus niger MTCC 282 assessed as growth inhibition measured after overnight incubation by broth dilution method; type: functional
[1] = Antitumor activity against human EKVX cells assessed as cell growth at 0.1 uM; type: functional; conditions: read-out: Activity
BT-549 = experiment: Antitumor activity against human BT549 cells assessed as cell growth at 0.1 uM; type: functional; conditions: read-out: Activity
HCT-15 = experiment: Antitumor activity against human HCT15 cells assessed as cell growth at 0.1 uM; type: functional; conditions: read-out: Activity
786-0 = experiment: Antitumor activity against human 786-0 cells assessed as cell growth at 0.1 uM; type: functional; conditions: read-out: Activity
SK-OV-3 = experiment: Antitumor activity against human SKOV3 cells assessed as cell growth at 0.1 uM; type: functional; conditions: read-out: Activity
SF-539 = experiment: Antitumor activity against human SF539 cells assessed as cell growth at 0.1 uM; type: functional; conditions: read-out: Activity
LOX IMVI = experiment: Antitumor activity against human LOXIMVI cells assessed as cell growth at 0.1 uM; type: functional; conditions: read-out: Activity
UACC-257 = experiment: Antitumor activity against human UACC257 cells assessed as cell growth at 0.1 uM; type: functional; conditions: read-out: Activity
RXF 393 = experiment: Antitumor activity against human RXF393 cells assessed as cell growth at 0.1 uM; type: functional; conditions: read-out: Activity
[2] = test system: Mycobacterium tuberculosis; experiment: Antitubercular activity against Mycobacterium tuberculosis H37Rv assessed as growth inhibition after 12 to 28 days by L.J. agar MIC method; type: functional
CAKI-1 = experiment: Antitumor activity against human CAKI-1 cells assessed as cell growth at 0.1 uM; type: functional; conditions: read-out: Activity
HT-29 = experiment: Antitumor activity against human HT-29 cells assessed as cell growth at 0.1 uM; type: functional; conditions: read-out: Activity
Staphylococcus aureus = experiment: Antimicrobial activity against Staphylococcus aureus MTCC 96 assessed as growth inhibition measured after overnight incubation by broth dilution method; type: functional
OVCAR-8 = experiment: Antitumor activity against human OVCAR8 cells assessed as cell growth at 0.1 uM; type: functional; conditions: read-out: Activity
Escherichia coli = experiment: Antimicrobial activity against Escherichia coli MTCC 443 assessed as growth inhibition measured after overnight incubation by broth dilution method; type: functional
SNB-75 = experiment: Antitumor activity against human SNB75 cells assessed as cell growth at 0.1 uM; type: functional; conditions: read-out: Activity
UO-31 = experiment: Antitumor activity against human UO31 cells assessed as cell growth at 0.1 uM; type: functional; conditions: read-out: Activity
TK-10 = experiment: Antitumor activity against human TK10 cells assessed as cell growth at 0.1 uM; type: functional; conditions: read-out: Activity
DU-145 = experiment: Antitumor activity against human DU145 cells assessed as cell growth at 0.1 uM; type: functional; conditions: read-out: Activity
SN12C = experiment: Antitumor activity against human SN12C cells assessed as cell growth at 0.1 uM; type: functional; conditions: read-out: Activity
SF-268 = experiment: Antitumor activity against human SF268 cells assessed as cell growth at 0.1 uM; type: functional; conditions: read-out: Activity
U-251 = experiment: Antitumor activity against human U251 cells assessed as cell growth at 0.1 uM; type: functional; conditions: read-out: Activity
MOLT-4 = experiment: Antitumor activity against human MOLT4 cells assessed as cell growth at 0.1 uM; type: functional; conditions: read-out: Activity
K562 = experiment: Antitumor activity against human K562 cells assessed as cell growth at 0.1 uM; type: functional; conditions: read-out: Activity
MDA-MB-231 = experiment: Antitumor activity against human MDA-MB-231/ATCC cells assessed as cell growth at 0.1 uM; type: functional; conditions: read-out: Activity
UACC-62 = experiment: Antitumor activity against human UACC62 cells assessed as cell growth at 0.1 uM; type: functional; conditions: read-out: Activity
Malme-3M = experiment: Antitumor activity against human MALME-3M cells assessed as cell growth at 0.1 uM; type: functional; conditions: read-out: Activity
HCT-116 = experiment: Antitumor activity against human HCT116 cells assessed as cell growth at 0.1 uM; type: functional; conditions: read-out: Activity
OVCAR-3 = experiment: Antitumor activity against human OVCAR3 cells assessed as cell growth at 0.1 uM; type: functional; conditions: read-out: Activity
SK-MEL-5 = experiment: Antitumor activity against human SK-MEL-5 cells assessed as cell growth at 0.1 uM; type: functional; conditions: read-out: Activity
MDA-MB-468 = experiment: Antitumor activity against human MDA-MB-468 cells assessed as cell growth at 0.1 uM; type: functional; conditions: read-out: Activity
SNB-19 = experiment: Antitumor activity against human SNB19 cells assessed as cell growth at 0.1 uM; type: functional; conditions: read-out: Activity
SK-MEL-28 = experiment: Antitumor activity against human SK-MEL-28 cells assessed as cell growth at 0.1 uM; type: functional; conditions: read-out: Activity
[3] = Antitumor activity against human Hs 578T cells assessed as cell growth at 0.1 uM; type: functional; conditions: read-out: Activity
Candida albicans = experiment: Antimicrobial activity against Candida albicans MTCC 227 assessed as growth inhibition measured after overnight incubation by broth dilution method; type: functional
A498 = experiment: Antitumor activity against human A498 cells assessed as cell growth at 0.1 uM; type: functional; conditions: read-out: Activity
NCI-H23 = experiment: Antitumor activity against human NCI-H23 cells assessed as cell growth at 0.1 uM; type: functional; conditions: read-out: Activity
A549 = experiment: Antitumor activity against human A549/ATCC cells assessed as cell growth at 0.1 uM; type: functional; conditions: read-out: Activity
Streptococcus pyogenes = experiment: Antimicrobial activity against Streptococcus pyogenes MTCC 442 assessed as growth inhibition measured after overnight incubation by broth dilution method; type: functional
HOP-62 = experiment: Antitumor activity against human HOP62 cells assessed as cell growth at 0.1 uM; type: functional; conditions: read-out: Activity
NCI-H460 = experiment: Antitumor activity against human NCI-H460 cells assessed as cell growth at 0.1 uM; type: functional; conditions: read-out: Activity
PC-3 = experiment: Antitumor activity against human PC3 cells assessed as cell growth at 0.1 uM; type: functional; conditions: read-out: Activity
Pseudomonas aeruginosa = experiment: Antimicrobial activity against Pseudomonas aeruginosa MTCC 2488 assessed as growth inhibition measured after overnight incubation by broth dilution method; type: functional
Aspergillus clavatus = experiment: Antimicrobial activity against Aspergillus clavatus MTCC 1323 assessed as growth inhibition measured after overnight incubation by broth dilution method; type: functional
T47D = experiment: Antitumor activity against human T47D cells assessed as cell growth at 0.1 uM; type: functional; conditions: read-out: Activity
SK-MEL-2 = experiment: cells; conditions: Homo sapiens, SK-MEL-2, read-out: Activity
Description: Antitumor activity against human SK-MEL-2 cells assessed as cell growth at 0.1 uM

[4] = Antitumor activity against human HCC2998 cells assessed as cell growth at 0.1 uM; type: functional; conditions: HCC 2998, read-out: Activity
KM12 = experiment: Antitumor activity against human KM12 cells assessed as cell growth at 0.1 uM; type: functional; conditions: read-out: Activity
COLO 205 = experiment: Antitumor activity against human COLO205 cells assessed as cell growth at 0.1 uM; type: functional; conditions: read-out: Activity
NCI-H522 = experiment: Antitumor activity against human NCI-H522 cells assessed as cell growth at 0.1 uM; type: functional; conditions: read-out: Activity
SF-295 = experiment: Antitumor activity against human SF295 cells assessed as cell growth at 0.1 uM; type: functional; conditions: read-out: Activity
HOP-92 = experiment: Antitumor activity against human HOP92 cells assessed as cell growth at 0.1 uM; type: functional; conditions: read-out: Activity
M14 = experiment: Antitumor activity against human M14 cells assessed as cell growth at 0.1 uM; type: functional; conditions: read-out: Activity
OVCAR-4 = experiment: Antitumor activity against human OVCAR4 cells assessed as cell growth at 0.1 uM; type: functional; conditions: read-out: Activity
RPMI-8226 = experiment: Antitumor activity against human RPMI8226 cells assessed as cell growth at 0.1 uM; type: functional; conditions: read-out: Activity
SR = experiment: Antitumor activity against human SR cells assessed as cell growth at 0.1 uM; type: functional; conditions: read-out: Activity
HL-60 = experiment: Antitumor activity against human HL60(TB) cells assessed as cell growth at 0.1 uM; type: functional; conditions: read-out: Activity
ACHN = experiment: Antitumor activity against human ACHN cells assessed as cell growth at 0.1 uM; type: functional; conditions: read-out: Activity
SW-620 = experiment: Antitumor activity against human SW620 cells assessed as cell growth at 0.1 uM; type: functional; conditions: read-out: Activity
OVCAR-5 = experiment: Antitumor activity against human OVCAR5 cells assessed as cell growth at 0.1 uM; type: functional; conditions: read-out: Activity
IGROV-1 = experiment: Antitumor activity against human IGROV1 cells assessed as cell growth at 0.1 uM; type: functional; conditions: read-out: Activity

For `CN1CCN(C(=O)CSc2nnc(-c3cccnc3SCc3ccccc3)o2)CC1`, the growth at 0.1 µM (MCF7) was 76.7%, the growth at 0.1 µM (MDA-MB-435) was 93.8% and the growth at 0.1 µM (NCI/ADR-RES) was 89.2%. For the same compound, the MIC (Aspergillus niger) was 500 µg/mL (≈ 1130 µM), the growth at 0.1 µM [1] was 70.7% and the growth at 0.1 µM (BT-549) was 95.4%. For the same compound, the growth at 0.1 µM (HCT-15) was 86.5%, the growth at 0.1 µM (786-0) was 109% and the growth at 0.1 µM (SK-OV-3) was 101%. It also gave a growth at 0.1 µM (SF-539) of 98.6%, a growth at 0.1 µM (LOX IMVI) of 90.3% and a growth at 0.1 µM (UACC-257) of 96.8%. The growth at 0.1 µM (RXF 393) was 89.1%, the “growth inhibition (GI)” value [2] was 97% and the MIC ([2]; Mycobacterium tuberculosis, H37Rv) was 250 µg/mL (≈ 566 µM). For the same compound, the growth at 0.1 µM (CAKI-1) was 93.4%, the growth at 0.1 µM (HT-29) was 93.7% and the MIC (Staphylococcus aureus) was 250 µg/mL (≈ 566 µM). The growth at 0.1 µM (OVCAR-8) was 97.7%, the MIC (Escherichia coli) was 100 µg/mL (≈ 226 µM) and the growth at 0.1 µM (SNB-75) was 83%. It also gave a growth at 0.1 µM (UO-31) of 30.9%, a growth at 0.1 µM (TK-10) of 115% and a growth at 0.1 µM (DU-145) of 81.7%. It also gave a growth at 0.1 µM (SN12C) of 64.2%, a growth at 0.1 µM (SF-268) of 67.5% and a growth at 0.1 µM (U-251) of 83.9%. The growth at 0.1 µM (MOLT-4) was 48.2%, the growth at 0.1 µM (K562) was 83% and the growth at 0.1 µM (MDA-MB-231) was 56.5%. It also gave a growth at 0.1 µM (UACC-62) of 76.8%, a growth at 0.1 µM (Malme-3M) of 97.1% and a growth at 0.1 µM (HCT-116) of 94.7%. It also gave a growth at 0.1 µM (OVCAR-3) of 92%, a growth at 0.1 µM (SK-MEL-5) of 84.8% and a growth at 0.1 µM (MDA-MB-468) of 74.8%. The growth at 0.1 µM (SNB-19) was 82%, the growth at 0.1 µM (SK-MEL-28) was 107% and the growth at 0.1 µM [3] was 93.2%. It also gave an MIC (Candida albicans) of 500 µg/mL (≈ 1130 µM), a growth at 0.1 µM (A498) of 78.5% and a growth at 0.1 µM (NCI-H23) of 87.6%. The growth at 0.1 µM (A549) was 68.5%, the MIC (Streptococcus pyogenes) was 125 µg/mL (≈ 283 µM) and the growth at 0.1 µM (HOP-62) was 97%. It also gave a growth at 0.1 µM (NCI-H460) of 90.1%, a growth at 0.1 µM (PC-3) of 57.4% and an MIC (Pseudomonas aeruginosa) of 200 µg/mL (≈ 453 µM). The MIC (Aspergillus clavatus) was 1000 µg/mL (≈ 2260 µM), the growth at 0.1 µM (T47D) was 55.3% and the growth at 0.1 µM (SK-MEL-2) was 101%. It also gave a growth at 0.1 µM [4] of 90.5%, a growth at 0.1 µM (KM12) of 72.8% and a growth at 0.1 µM (COLO 205) of 110%. For the same compound, the growth at 0.1 µM (NCI-H522) was 71.3%, the growth at 0.1 µM (SF-295) was 89.6% and the growth at 0.1 µM (HOP-92) was 43.3%. It also gave a growth at 0.1 µM (M14) of 99.6%, a growth at 0.1 µM (OVCAR-4) of 57.4% and a growth at 0.1 µM (RPMI-8226) of 61.5%. It also gave a growth at 0.1 µM (SR) of 79.8%, a growth at 0.1 µM (HL-60) of 70.3% and a growth at 0.1 µM (ACHN) of 80.8%. The growth at 0.1 µM (SW-620) was 97.2%, the growth at 0.1 µM (OVCAR-5) was 101% and the growth at 0.1 µM (IGROV-1) was 75.3%.
